This data set concerns the target Cytochrome P450 3A5 (Homo sapiens, UniProt P20815). Kind of data set: Drug metabolism assessed as human CYP3A5-mediated (R)-1-(4-(4-fluoro-2-(hydroxymethyl)-1H-indol-5-yloxy)-5-methylpyrrolo[1,2-f][1,2,4]triazin-6-yloxy)propan-2-ol formation at 2 and 20 uM for 20 mins by LC/MS analysis in presence of NADPH. Format: ADME. Conditions: recombinant enzyme.

The structures appear in SMILES notation.

Cytochrome P450 3A5, sequence (P20815 whole entry): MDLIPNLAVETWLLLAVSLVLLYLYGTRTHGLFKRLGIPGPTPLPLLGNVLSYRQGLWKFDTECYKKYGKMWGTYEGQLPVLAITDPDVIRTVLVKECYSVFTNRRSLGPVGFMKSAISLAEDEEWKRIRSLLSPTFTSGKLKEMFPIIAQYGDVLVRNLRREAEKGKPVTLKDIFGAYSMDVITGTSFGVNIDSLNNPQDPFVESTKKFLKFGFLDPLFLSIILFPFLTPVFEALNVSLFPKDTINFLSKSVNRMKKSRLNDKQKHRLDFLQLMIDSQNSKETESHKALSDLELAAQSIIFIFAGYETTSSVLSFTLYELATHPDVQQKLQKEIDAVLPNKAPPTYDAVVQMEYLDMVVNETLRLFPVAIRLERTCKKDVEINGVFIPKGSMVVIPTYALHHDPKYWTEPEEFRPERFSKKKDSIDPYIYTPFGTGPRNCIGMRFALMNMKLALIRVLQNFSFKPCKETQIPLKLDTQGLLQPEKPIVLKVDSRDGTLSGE

As for `Cc1cc2c(F)c(Oc3ncnn4cc(OC[C@@H](C)O)c(C)c34)ccc2[nH]1` [BRIVANIB], the Drug metabolism result is “metabolite_detected”.
